Experimental data as given in BigSolDB 2.1.

O=C1c2cccc(Cl)c2C(=O)N1c1ccccc1
solubility (mole fraction)
Conditions	in 1,4-dioxane	in acetic acid	in acetone	in acetonitrile	in ethyl acetate	in isobutanol	in isopropanol	in methanol	in n-butanol	in n-propanol
288.15 K	0.00825	0.000923	0.00298	0.00196	0.0021	0.000116	7.27e-05	0.000147	0.000183	0.000162
290.65 K	0.00898	0.00104	0.00324	0.00216	0.00232	0.000128	8.36e-05	0.000171	0.000204	0.000187
293.15 K	0.00979	0.00116	0.00358	0.00236	0.00255	0.000149	9.82e-05	0.000194	0.000234	0.000226
295.65 K	0.0107	0.0013	0.00392	0.00258	0.00284	0.000167	0.000111	0.00022	0.000266	0.000266
298.15 K	0.0115	0.00145	0.00429	0.0028	0.00315	0.000189	0.000132	0.000249	0.000308	0.000311
300.65 K	0.0125	0.00159	0.00468	0.00305	0.00347	0.000221	0.000151	0.00028	0.000345	0.000353
303.15 K	0.0134	0.00175	0.00505	0.00332	0.0038	0.000258	0.000178	0.000308	0.000388	0.000411
305.65 K	0.0145	0.00189	0.00551	0.00361	0.00412	0.000296	0.000208	0.000339	0.000432	0.000468
308.15 K	0.0158	0.00206	0.00597	0.00397	0.00448	0.000341	0.000237	0.000381	0.000478	0.000527
310.65 K	0.0171	0.00225	0.00654	0.0043	0.00484	0.000392	0.000268	0.000428	0.000535	0.000593
313.15 K	0.0188	0.00248	0.00718	0.0047	0.00525	0.000457	0.000305	0.000478	0.000597	0.000668
315.65 K	0.0204	0.00273	0.00779	0.00514	0.00568	0.000526	0.000345	0.000533	0.000665	0.000747
318.15 K	0.0224	0.00299	0.00851	0.00553	0.00617	0.000599	0.000387	0.00059	0.00074	0.00083
320.65 K	0.0243	0.00328	0.00919	0.00603	0.00669	0.000679	0.000445	0.000656	0.000821	0.000917
323.15 K	0.0266	0.00364	0.00995	0.00655	0.00734	0.000762	0.00053	0.000745	0.000908	0.00103
